Values joined by “and” are separate entries in the source; they are usually repeats but may differ in a detail not shown here. Equal values may be shown once. Ends that are not written are not given here.
Legend:
Assay type in all cases: in vivo, human
[1] = test system: patients with retinal detachment; assay: Clinical study in retinal detachment patients: BCVA after single intravitreal injection followed by vitrectomy; conditions: for summary statistics for all patients, mean (of the BCVA logMAR values of Table 2): all doses 25-200 ug; for BCVA logMAR study eye / BCVA Snellen study eye: individual patients
Protocol: (§1) The primary objective was to determine the Maximum Tolerated Dose (MTD) of a peptide an amino acid sequence […] and the structure of Formula III (ONL1204) and select doses for further clinical studies. During the study, ocular fluid samples were also collected at the time of study drug injection and at the time of vitrectomy. These samples were used for pharmacokinetic and pharmacodynamic analyses.
(§2) Patients were enrolled in ascending dose groups. […] Safety visits were conducted one day post-injection and as deemed necessary by the examining Investigator (at least 1 visit every 3 days) until Visit 3. At Visit 3 (3+ days post-injection, in accordance with standard of care) patients underwent surgical repair of their retinal detachment with vitrectomy (with or without scleral buckling) and gas or oil tamponade. At the time of surgery, an undiluted vitreous sample was collected for pharmacokinetic and pharmacodynamics analyses, and an aqueous sample was collected for pharmacodynamic analysis. Additional safety visits were targeted for and generally conducted one day post-surgery, 7 days (±3 days) post-surgery, 14 (+4 days) days post-surgery, and Weeks 6, 9, 12 (±7 days each), and Week 24 (+14 days; study exit).
Therefore, a volume of 0.05 or 0.1 mL was injected into the study eye. Patient participation was approximately 24 weeks (6 months): a single injection treatment and 24 weeks of follow-up.

[2] = test system: IL18; assay: Change in cytokine level in ocular fluid samples from administration to surgery
Protocol: as §1, §2

[3] = test system: ICAM1; assay: as above
Protocol: as §1, §2

[4] = test system: MCP1; assay: as above
Protocol: as §1, §2

[5] = test system: IL1RA; assay: as above
Protocol: as §1, §2

[6] = test system: patients having macular degeneration characterized by geographic atrophy (GA); assay: Clinical study in GA patients: best corrected visual acuity (BCVA) after single intravitreal injection; conditions: all patients receiving 25 ug and 50 ug, compared to baseline BCVA
[7] = test system: patients with retinal detachment; assay: Clinical study in retinal detachment patients: safety, adverse event reporting
Protocol: as §1, §2
Planned determinations of dose limiting toxicity included consideration of the following events: • 1.

[8] = dose 25 ug (Table 1), individual patients
[9] = dose 50 ug (Table 1), individual patients
[10] = dose 100 ug (Table 1), individual patients
[11] = dose 200 ug (Table 1), individual patient
[12] = 8 patients, 25 ug and 50 ug cohorts

Substance: HHIYLGAVNYIY-NH2 [ONL1204]
- summary statistics for all patients, mean (of the BCVA logMAR values of Table 2) ([1]; Week 6, n 14): 0.65
- summary statistics for all patients, mean (of the BCVA logMAR values of Table 2) ([1]; Week 9, n 13): 0.78
- summary statistics for all patients, mean (of the BCVA logMAR values of Table 2) ([1]; Week 24, n 13): 0.56
- visual outcomes ([1]; all patients receiving ONL1204, also with greater than 10 days of central vision loss, 3 to 7 days from administration to surgery, range of detachment heights and extents): improved visual outcomes were observed for all patients
- visual outcomes (e.g., visual acuity) ([1]; retinal detachment, all patients receiving 25 ug and 50 ug, intravitreal injection then surgery): improvement in visual outcomes
- BCVA logMAR study eye ([1]; week 6, dose 25 ug (Table 1)): 0.34 logMAR and 0.18 logMAR and 0.82 logMAR (2×)
- BCVA Snellen study eye ([1]; week 6, dose 25 ug): 20/40 and 20/32 and 20/125 (2×)
- BCVA logMAR study eye ([1]; week 6, dose 50 ug (Table 1)): 0.46 logMAR and 0.38 logMAR (2×) and 0.52 logMAR
- BCVA Snellen study eye ([1]; week 6, dose 50 ug): 20/50 (2×) and 20/80
- BCVA logMAR study eye ([1]; week 6, dose 100 ug (Table 1)): 0.8 logMAR and 0.7 logMAR and 1 logMAR and 1.6 logMAR
- BCVA Snellen study eye ([1]; week 6, dose 100 ug): 20/125 and 20/100 and 20/200 and 20/800
- BCVA logMAR study eye ([1]; week 6, dose 200 ug (Table 1)): 0.4 logMAR and 0.7 logMAR
- BCVA Snellen study eye ([1]; week 6, dose 200 ug): 20/50 and 20/100
- BCVA logMAR study eye ([1]; week 9, dose 25 ug (Table 1)): 0.14 logMAR and 0.12 logMAR and 0.64 logMAR and 0.78 logMAR
- BCVA Snellen study eye ([1]; week 9, dose 25 ug): 20/25 (2×) and 20/100 and 20/125
- BCVA logMAR study eye ([1]; week 9, dose 50 ug (Table 1)): 0.6 logMAR and 0.56 logMAR and 0.34 logMAR
- BCVA Snellen study eye ([1]; week 9, dose 50 ug): 20/80 (2×) and 20/50
- BCVA Snellen study eye ([1]; week 9, dose 100 ug, HM = hand motion): 20/200 and 20/80 and 20/400
- BCVA logMAR study eye ([1]; week 9, dose 200 ug (Table 1)): 0.36 logMAR and 0.6 logMAR
- BCVA Snellen study eye ([1]; week 9, dose 200 ug): 20/40 and 20/80
- BCVA logMAR study eye ([1]; week 24, dose 25 ug (Table 1)): 0.5 logMAR and 0.2 logMAR and 0.68 logMAR and 0.7 logMAR
- BCVA Snellen study eye ([1]; week 24, dose 25 ug): 20/60 and 20/32 and 20/100 (2×)
- BCVA logMAR study eye ([1]; week 24, dose 50 ug (Table 1)): 0.76 logMAR and 0.2 logMAR and 0.64 logMAR and 0.34 logMAR
- BCVA Snellen study eye ([1]; week 24, dose 50 ug): 20/125 and 20/32 and 20/80 and 20/50
- BCVA logMAR study eye ([1]; week 24, dose 100 ug (Table 1)): 0.5 logMAR and 0.7 logMAR and 1.3 logMAR and 0.6 logMAR
- BCVA Snellen study eye ([1]; week 24, dose 100 ug): 20/63 and 20/100 and 20/400 and 20/80
- BCVA logMAR study eye ([1]; week 24, dose 200 ug (Table 1)): 0.2 logMAR
- BCVA Snellen study eye ([1]; week 24, dose 200 ug): 20/32
- change in IL18 level from ONL1204 administration to surgery, mean ([2]; all patients of Table 7): mean decrease
- IL18 Percent Change (%) from time of administering ONL1204 to surgery [2, 8]: −60.5% and −22.5% and −50.8%
- IL18 Percent Change (%) from time of administering ONL1204 to surgery [2, 9]: −100% and 0% (2×)
- IL18 Percent Change (%) from time of administering ONL1204 to surgery [2, 10]: −33.7% and 0% and 66.0%
- IL18 Percent Change (%) from time of administering ONL1204 to surgery [2, 11]: 0%
- change in ICAM level from ONL1204 administration to surgery, mean ([3]; all patients of Table 7): mean decrease
- ICAM1 Percent Change (%) from time of administering ONL1204 to surgery [3, 8]: −82.4% and −42.7% and −86.2%
- ICAM1 Percent Change (%) from time of administering ONL1204 to surgery [3, 9]: −100% and 0% and 64.0%
- ICAM1 Percent Change (%) from time of administering ONL1204 to surgery [3, 10]: −43.9% and 24.9% and 22.7%
- ICAM1 Percent Change (%) from time of administering ONL1204 to surgery [3, 11]: 0%
- change in MCP1 level from ONL1204 administration to surgery, mean ([4]; all patients of Table 7): mean decrease
- MCP1 Percent Change (%) from time of administering ONL1204 to surgery [4, 8]: −41.4% and −6.02% and −35.9%
- MCP1 Percent Change (%) from time of administering ONL1204 to surgery [4, 9]: −48.4% and 11.6% and −3.12%
- MCP1 Percent Change (%) from time of administering ONL1204 to surgery [4, 10]: −9.5% and 78.5% and 500%
- MCP1 Percent Change (%) from time of administering ONL1204 to surgery [4, 11]: −2.4%
- change in IL1RA level from ONL1204 administration to surgery, mean ([5]; all patients of Table 7): mean decrease
- IL1RA Percent Change (%) from time of administering ONL1204 to surgery [5, 8]: −51.0% and −57.4% and −99.3%
- IL1RA Percent Change (%) from time of administering ONL1204 to surgery [5, 9]: −94.4% and −88.3% and −60.0%
- IL1RA Percent Change (%) from time of administering ONL1204 to surgery [5, 10]: 8.5% and −46.1% and −65.2%
- IL1RA Percent Change (%) from time of administering ONL1204 to surgery [5, 11]: −26.3%
- visual outcomes (e.g., visual acuity) [6]: improvement in visual outcomes
- patients experiencing adverse events ([7]; 4 patients receiving 25 ug and 4 patients receiving 50 ug): 7 out of 8
- severity and relatedness of adverse events [7, 12]: Most were mild, and study procedure or surgery related
- total adverse events [7, 12]: 20 adverse events

— patent US20240197815A1, “METHODS AND COMPOSITIONS FOR IMPROVING VISUAL FUNCTION IN OCULAR DISEASES AND DISORDERS” (ONL Therapeutics, Inc., priority 2021, published 2024)
